What is called IC50 is the concentration needed to halve the response being measured. A word on the EC50: it is the concentration that produces a half-maximal response.

The results in this text go back to ChEMBL document CHEMBL4219204, “Structure-based design and discovery of potent and selective KDM5 inhibitors” (Bioorg Med Chem Lett, 2018).

Data set [1] in a line: Protein binding in mouse plasma. The data set is classed as ADME, cell-free. Particulars: read-out: PPB (converted); call rule not given here.
Data set [2] has as its target T1, Lysine-specific demethylase 4B (Homo sapiens, UniProt O94953).
T1 sequence (O94953 whole entry): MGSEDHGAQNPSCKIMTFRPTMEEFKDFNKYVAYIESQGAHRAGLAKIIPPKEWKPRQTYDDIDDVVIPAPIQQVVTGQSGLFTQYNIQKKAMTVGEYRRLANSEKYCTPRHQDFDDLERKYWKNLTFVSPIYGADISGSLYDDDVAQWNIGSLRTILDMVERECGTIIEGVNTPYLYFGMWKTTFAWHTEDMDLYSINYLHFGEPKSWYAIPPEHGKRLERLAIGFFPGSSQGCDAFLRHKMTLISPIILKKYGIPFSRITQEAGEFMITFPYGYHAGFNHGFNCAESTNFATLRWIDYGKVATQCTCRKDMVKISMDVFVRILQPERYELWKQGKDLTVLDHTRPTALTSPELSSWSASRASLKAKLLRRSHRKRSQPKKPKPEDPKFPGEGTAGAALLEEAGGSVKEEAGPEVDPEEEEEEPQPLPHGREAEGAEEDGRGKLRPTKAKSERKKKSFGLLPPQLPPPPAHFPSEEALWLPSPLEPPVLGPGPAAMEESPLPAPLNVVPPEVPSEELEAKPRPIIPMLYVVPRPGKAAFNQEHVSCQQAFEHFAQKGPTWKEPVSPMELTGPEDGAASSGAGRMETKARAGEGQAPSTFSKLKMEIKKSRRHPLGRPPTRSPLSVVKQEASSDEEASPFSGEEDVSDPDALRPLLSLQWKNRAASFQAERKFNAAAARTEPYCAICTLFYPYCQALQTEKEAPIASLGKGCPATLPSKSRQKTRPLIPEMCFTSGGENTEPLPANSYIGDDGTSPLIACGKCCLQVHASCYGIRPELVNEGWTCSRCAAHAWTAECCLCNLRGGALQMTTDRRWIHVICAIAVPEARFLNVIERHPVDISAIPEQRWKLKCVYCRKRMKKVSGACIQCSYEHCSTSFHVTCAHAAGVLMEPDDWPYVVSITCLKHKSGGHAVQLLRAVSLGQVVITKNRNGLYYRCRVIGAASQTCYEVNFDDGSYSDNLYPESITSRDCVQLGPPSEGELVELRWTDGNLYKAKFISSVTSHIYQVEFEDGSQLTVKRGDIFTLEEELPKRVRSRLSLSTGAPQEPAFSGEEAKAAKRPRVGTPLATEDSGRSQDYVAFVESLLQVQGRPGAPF
As to the kind of experiment: Inhibition of KDM4B (unknown origin).

Data set [3] in a line: Inhibition of CYP450 (unknown origin). Particulars: human. The data set is classed as ADME.
The nature of data set [4]: Drug uptake in tumor of nude mouse xenografted with human MCF7 cells at 75 mg/kg, po qd for 5 days measured at 1 hr post last dose. Type of data set: ADME, organism-based, Neoplasm. The following applies: in vivo.
Data set [5] addresses T2, Lysine-specific demethylase 2B (Homo sapiens, UniProt Q8NHM5).
T2 sequence (Q8NHM5 whole entry): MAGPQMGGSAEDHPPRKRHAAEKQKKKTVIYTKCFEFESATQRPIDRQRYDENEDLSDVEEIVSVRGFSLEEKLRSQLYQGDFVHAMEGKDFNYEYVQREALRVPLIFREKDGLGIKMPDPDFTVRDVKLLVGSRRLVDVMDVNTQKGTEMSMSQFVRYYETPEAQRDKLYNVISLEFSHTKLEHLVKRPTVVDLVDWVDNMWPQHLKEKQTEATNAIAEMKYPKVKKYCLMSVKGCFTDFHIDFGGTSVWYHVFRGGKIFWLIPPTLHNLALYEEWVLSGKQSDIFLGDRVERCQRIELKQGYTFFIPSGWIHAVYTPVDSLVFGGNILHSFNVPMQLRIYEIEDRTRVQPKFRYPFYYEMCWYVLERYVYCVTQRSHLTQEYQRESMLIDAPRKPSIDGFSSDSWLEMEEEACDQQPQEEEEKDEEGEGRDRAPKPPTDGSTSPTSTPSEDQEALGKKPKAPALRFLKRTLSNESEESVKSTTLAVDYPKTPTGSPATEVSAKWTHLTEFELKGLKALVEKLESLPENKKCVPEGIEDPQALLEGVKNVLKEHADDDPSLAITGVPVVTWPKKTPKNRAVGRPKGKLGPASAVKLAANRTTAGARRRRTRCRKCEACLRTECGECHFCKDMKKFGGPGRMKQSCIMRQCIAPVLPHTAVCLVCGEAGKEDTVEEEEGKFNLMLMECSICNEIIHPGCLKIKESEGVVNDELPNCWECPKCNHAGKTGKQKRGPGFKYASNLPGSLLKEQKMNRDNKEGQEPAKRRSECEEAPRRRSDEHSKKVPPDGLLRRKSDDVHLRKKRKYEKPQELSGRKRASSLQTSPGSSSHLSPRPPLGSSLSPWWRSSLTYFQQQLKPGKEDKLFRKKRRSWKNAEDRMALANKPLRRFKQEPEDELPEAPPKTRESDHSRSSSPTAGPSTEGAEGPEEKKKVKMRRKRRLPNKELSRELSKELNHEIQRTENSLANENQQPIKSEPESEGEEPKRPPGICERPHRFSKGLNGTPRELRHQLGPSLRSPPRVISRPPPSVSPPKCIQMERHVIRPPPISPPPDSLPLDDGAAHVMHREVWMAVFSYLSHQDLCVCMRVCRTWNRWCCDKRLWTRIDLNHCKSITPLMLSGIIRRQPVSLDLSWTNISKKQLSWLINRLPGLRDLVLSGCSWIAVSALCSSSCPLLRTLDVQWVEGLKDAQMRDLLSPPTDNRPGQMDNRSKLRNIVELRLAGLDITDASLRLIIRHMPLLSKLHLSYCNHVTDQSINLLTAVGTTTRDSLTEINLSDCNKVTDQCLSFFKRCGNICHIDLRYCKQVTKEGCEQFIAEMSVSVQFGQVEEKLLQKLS
Put plainly: Inhibition of KDM2B (unknown origin).

Data set [6] has as its target Lysine-specific demethylase 5A/5B (Homo sapiens, UniProt P29375+Q9UGL1). As to the kind of experiment: Inhibition of KDM5A/KDM5B in human ZR-75-1 cells assessed as increase in H3K4me3 level after 72 hrs by fluorometric immunoassay. The data set is classed as cell-based.

In the case of `Cc1cc(Cl)ccc1COc1ccnn1-c1cc(C(=O)O)ccn1`, the fraction unbound in data set [1] is 0.009. Moreover, the IC50 in data set [2] is 0.17 µM; in data set [5], 0.63 µM. The “inhibition (INH)” value in data set [3] is “Not Active”. The Drug uptake entry in data set [4] was “Active”. For the same compound, the EC50 in data set [6] worked out at 0.09 µM.
